Experimental data as given in ChEMBL document CHEMBL1649141, “Synthesis and antimalarial activities of cyclen 4-aminoquinoline analogs” (Antimicrob Agents Chemother, 2009).
Active and inactive are the calls of the source. The calls are words filed in the database; no cut-off is given here.

Assays:
Vero = test: Cytotoxicity against african green monkey Vero cells upto 10 uM after 72 hrs; type: cell-based; details: chlorocebus sabaeus
[1] = Selectivity index, ratio of IC50 for african green monkey Vero cells to IC50 for chloroquine-resistant Plasmodium falciparum W2; type: toxicity, cell-based; details: read-out: Selectivity Index
Plasmodium falciparum [2] = test: Antimalarial activity against chloroquine-resistant Plasmodium falciparum W2 after 72 hrs; type: functional, organism-based; details: W2, 72 h
Plasmodium falciparum [3] = test: Antimalarial activity against chloroquine-sensitive Plasmodium falciparum D6 after 72 hrs; type: functional, organism-based; details: D6, 72 h
[4] = Selectivity index, ratio of IC50 for african green monkey Vero cells to IC50 for chloroquine-sensitive Plasmodium falciparum D6; type: toxicity, cell-based; details: read-out: Selectivity Index
Plasmodium berghei [5] = test: Antimalarial activity against Plasmodium berghei NK-65 infected in Swiss Webster mouse assessed as mean survival time at 3.3 mg/kg, ip QD for 3 days administered 2 hrs post infection; type: functional; details: route intraperitoneal
Plasmodium berghei [6] = test: Antimalarial activity against Plasmodium berghei NK-65 infected in Swiss Webster mouse assessed as suppression of parasitemia at 10 mg/kg, ip QD for 3 days administered 2 hrs post infection measured on day 7; type: functional; details: route intraperitoneal
Plasmodium berghei [7] = test: Antimalarial activity against Plasmodium berghei NK-65 infected in Swiss Webster mouse assessed as cure from parasite infection at 1.1 mg/kg, ip QD for 3 days administered 2 hrs post infection measured after 28 days; type: functional, organism-based; parameters: dose 1.1 mg/kg
Plasmodium berghei [8] = test: Antimalarial activity against Plasmodium berghei NK-65 infected in Swiss Webster mouse assessed as mean survival time at 1.1 mg/kg, ip QD for 3 days administered 2 hrs post infection measured on day 28; type: functional; details: route intraperitoneal
Plasmodium berghei [9] = test: Antimalarial activity against Plasmodium berghei NK-65 infected in Swiss Webster mouse assessed as suppression of parasitemia at 10 mg/kg, ip QD for 3 days administered 2 hrs post infection measured on day 10; type: functional; details: route intraperitoneal
Plasmodium berghei [10] = test: Antimalarial activity against Plasmodium berghei NK-65 infected in Swiss Webster mouse assessed as suppression of parasitemia at 1.1 mg/kg, ip QD for 3 days administered 2 hrs post infection measured on day 10; type: functional; details: route intraperitoneal
Plasmodium berghei [11] = test: Antimalarial activity against Plasmodium berghei NK-65 infected in Swiss Webster mouse assessed as suppression of parasitemia at 10 mg/kg, ip QD for 3 days administered 2 hrs post infection measured on day 5; type: functional; details: route intraperitoneal
Plasmodium falciparum [12] = test: Antimalarial activity against […]-resistant Plasmodium falciparum TM91C235 assessed as [3H]hypoxanthine incorporation; type: functional, organism-based
Plasmodium berghei [13] = test: Antimalarial activity against Plasmodium berghei NK-65 infected in Swiss Webster mouse assessed as suppression of parasitemia at 30 mg/kg, ip QD for 3 days administered 2 hrs post infection measured on day 5; type: functional; details: route intraperitoneal
Plasmodium berghei [14] = test: Antimalarial activity against Plasmodium berghei NK-65 infected in Swiss Webster mouse assessed as suppression of parasitemia at 3.3 mg/kg, ip QD for 3 days administered 2 hrs post infection measured on day 5; type: functional; details: route intraperitoneal
Plasmodium berghei [15] = test: Antimalarial activity against Plasmodium berghei NK-65 infected in Swiss Webster mouse assessed as suppression of parasitemia at 30 mg/kg, ip QD for 3 days administered 2 hrs post infection measured on day 7; type: functional; details: route intraperitoneal
Plasmodium berghei [16] = test: Antimalarial activity against Plasmodium berghei NK-65 infected in Swiss Webster mouse assessed as suppression of parasitemia at 3.3 mg/kg, ip QD for 3 days administered 2 hrs post infection measured on day 10; type: functional; details: route intraperitoneal
Plasmodium berghei [17] = test: Antimalarial activity against Plasmodium berghei NK-65 infected in Swiss Webster mouse assessed as mean survival time at 30 mg/kg, ip QD for 3 days administered 2 hrs post infection; type: functional; details: route intraperitoneal
Plasmodium berghei [18] = test: Antimalarial activity against Plasmodium berghei NK-65 infected in Swiss Webster mouse assessed as suppression of parasitemia at 1.1 mg/kg, ip QD for 3 days administered 2 hrs post infection measured on day 5; type: functional; details: route intraperitoneal
Plasmodium falciparum [19] = test: Antimalarial activity against chloroquine-resistant Plasmodium falciparum W2 assessed as [3H]hypoxanthine incorporation; type: functional, organism-based
Plasmodium berghei [20] = test: Antimalarial activity against Plasmodium berghei NK-65 infected in Swiss Webster mouse assessed as mean survival time at 10 mg/kg, ip QD for 3 days administered 2 hrs post infection; type: functional; details: route intraperitoneal
Plasmodium berghei [21] = test: Antimalarial activity against Plasmodium berghei NK-65 infected in Swiss Webster mouse assessed as suppression of parasitemia at 30 mg/kg, ip QD for 3 days administered 2 hrs post infection measured on day 10; type: functional; details: route intraperitoneal
Plasmodium berghei [22] = test: Antimalarial activity against Plasmodium berghei NK-65 infected in Swiss Webster mouse assessed as suppression of parasitemia at 1.1 mg/kg, ip QD for 3 days administered 2 hrs post infection measured on day 7; type: functional; details: route intraperitoneal
[23] = Inhibition of beta-hematin formation after 14 hrs by spectrophotometry; type: functional
Plasmodium falciparum [24] = test: Antimalarial activity against chloroquine-sensitive Plasmodium falciparum D6 assessed as [3H]hypoxanthine incorporation; type: functional, organism-based
Plasmodium berghei [25] = test: Antimalarial activity against Plasmodium berghei NK-65 infected in Swiss Webster mouse assessed as cure from parasite infection at 30 mg/kg, ip QD for 3 days administered 2 hrs post infection measured on day 28; type: functional; details: route intraperitoneal
Plasmodium berghei [26] = test: Antimalarial activity against Plasmodium berghei NK-65 infected in Swiss Webster mouse assessed as cure from parasite infection at 10 mg/kg, ip QD for 3 days administered 2 hrs post infection measured on day 28; type: functional, organism-based; parameters: dose 10 mg/kg
Plasmodium berghei [27] = test: Antimalarial activity against Plasmodium berghei NK-65 infected in Swiss Webster mouse assessed as suppression of parasitemia at 3.3 mg/kg, ip QD for 3 days administered 2 hrs post infection measured on day 7; type: functional; details: route intraperitoneal
Plasmodium berghei [28] = test: Antimalarial activity against Plasmodium berghei NK-65 infected in Swiss Webster mouse assessed as cure from parasite infection at 3.3 mg/kg, ip QD for 3 days administered 2 hrs post infection measured on day 28; type: functional, organism-based; parameters: dose 3.3 mg/kg
Mus musculus = test: Toxicity in Plasmodium berghei NK-65 infected Swiss Webster mouse at 30 mg/kg, ip QD for 3 days; type: organism-based; parameters: dose 30 mg/kg, route intraperitoneal; details: in vivo, 72 h

Structure (SMILES)	Activity (Vero)	selectivity ratio [1]	IC50 (Plasmodium falciparum [2]) [nM]	IC50 (Plasmodium falciparum [3]) [nM]	selectivity ratio [4]	IC50 (Plasmodium falciparum [12]) [nM]	Activity (Plasmodium berghei [13]) [%]	Activity (Plasmodium berghei [15]) [%]	Time (Plasmodium berghei [17]) [days]	IC50 (Plasmodium falciparum [19]) [nM]	Activity (Plasmodium berghei [21]) [%]	IC50 [23] [nM]	Activity (Plasmodium berghei [25]) [%]	other results
Br.Clc1ccc2c(N3CCNCCNCCNCC3)ccnc2c1	Non-toxic	> 48	211	64.8	> 154									
Clc1ccc2c(N3CCNCCN(c4ccnc5cc(Cl)ccc45)CCNCC3)ccnc2c1	Non-toxic	> 521	19.2	7.5	> 1330	2.5	100	100	>28	5.8	100	1100	60	Time (Plasmodium berghei [5]): 22.8 days; Activity (Plasmodium berghei [6]): 59.7%; Activity (Plasmodium berghei [7]): inactive; Time (Plasmodium berghei [8]): 23.8 days; Activity (Plasmodium berghei [9]): 40.9%; Activity (Plasmodium berghei [10]): 22.7%; Activity (Plasmodium berghei [11]): 96.3%; Activity (Plasmodium berghei [14]): 84.6%; Activity (Plasmodium berghei [16]): 43.9%; Activity (Plasmodium berghei [18]): 65.2%; Time (Plasmodium berghei [20]): 26.2 days; Activity (Plasmodium berghei [22]): 33.3%; IC50 (Plasmodium falciparum [24]): 4.1 nM; Activity (Plasmodium berghei [26]): inactive; Activity (Plasmodium berghei [27]): 44.1%; Activity (Plasmodium berghei [28]): inactive
C[C@@H]1CC[C@H]2[C@@H](C)C(=O)O[C@@H]3O[C@@]4(C)CC[C@@H]1[C@]32OO4 [ARTEMISININ]	Non-toxic													
CCN(CC)CCCC(C)Nc1ccnc2cc(Cl)ccc12 (stereo not given) [CHLOROQUINE]	Non-toxic						100	100	>28		100	9500	75	Activity (Mus musculus): Non-toxic
OC(c1cc(C(F)(F)F)nc2c(C(F)(F)F)cccc12)C1CCCCN1 (stereo not given) [MEFLOQUINE]						55.8				7.2				
